Molecular target: T1, Human M4 (Homo sapiens, UniProt P08173)
T1 construct: expressed in transfected cells
T1 sequence (P08173 1-479): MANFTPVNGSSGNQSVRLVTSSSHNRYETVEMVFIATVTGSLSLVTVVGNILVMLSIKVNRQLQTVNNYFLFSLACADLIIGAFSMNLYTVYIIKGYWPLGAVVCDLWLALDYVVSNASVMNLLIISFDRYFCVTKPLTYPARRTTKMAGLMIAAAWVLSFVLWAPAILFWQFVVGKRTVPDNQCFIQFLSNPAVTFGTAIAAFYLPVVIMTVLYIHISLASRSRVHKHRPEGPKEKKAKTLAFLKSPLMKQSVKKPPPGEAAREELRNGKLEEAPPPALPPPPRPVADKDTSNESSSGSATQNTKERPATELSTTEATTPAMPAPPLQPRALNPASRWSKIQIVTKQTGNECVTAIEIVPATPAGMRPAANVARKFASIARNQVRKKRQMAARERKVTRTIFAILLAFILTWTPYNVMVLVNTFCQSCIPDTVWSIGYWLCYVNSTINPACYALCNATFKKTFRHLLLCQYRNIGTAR
Assay: mAChR M4 cell-based functional assay (calcium flux, potentiation of EC20 acetylcholine response), hM4-Gqi5 CHO-K1 cells
Conditions: for Emax at 30 µM: CHO-K1, % ACh maximum at 30 μM, human M4, read-out: Emax; for EC50: hM4-Gqi5 CHO-K1 cells, calcium flux, PAM of EC20 acetylcholine, read-out: Human M4 EC50
Experimental: Human and rat M4 cDNAs, along with the chimeric G protein Gqi5, were transfected into Chinese hamster ovary (CHO-K1) cells purchased from the American Type Culture Collection using Lipofectamine2000. hM4-Gqi5 cells were grown in Ham's F-12 medium containing 10% heat-inactivated fetal bovine serum (FBS), 20 mM HEPES, 50 μg/mL G418 sulfate, and 500 μg/mL Hygromycin B. rM4-Gqi5 cells were grown in DMEM containing 10% heat-inactivated FBS, 20 mM HEPES, 400 μg/mL G418 sulfate, and 500 μg/mL Hygromycin B.
For high throughput measurement of agonist-evoked increases in intracellular calcium, CHO-K1 cells stably expressing muscarinic receptors were plated in growth medium lacking G418 and hygromycin at 15,000 cells/20 μL/well in Greiner 384-well black-walled, tissue culture (TC)-treated, clear-bottom plates (VWR). Cells were incubated overnight at 37° C. and 5% CO2. The next day, cells were washed using an ELX 405 (BioTek) with assay buffer; the final volume was then aspirated to 20 μL. Next, 20 μL of a 2.3 μM stock of Fluo-4/acetoxymethyl ester (Invitrogen, Carlsbad, CA), prepared as a 2.3 mM stock in DMSO and mixed in a 1:1 ratio with 10% (w/v) Pluronic F-127 and diluted in assay buffer, was added to the wells and the cell plates were incubated for 50 min at 37° C. and 5% CO2. Dye was removed by washing with the ELX 405 and the final volume was aspirated to 20 μL. Compound master plates were formatted in an 11 point concentration-response curve (CRC) format (1:3 dilutions) in 100% DMSO with a starting concentration of 10 mM using a BRAVO liquid handler (Agilent). Test compound CRCs were then transferred to daughter plates (240 nL) using the Echo acoustic plate reformatter (Labcyte, Sunnyvale, CA) and then diluted into assay buffer (40 μL) to a 2× stock using a Thermo Fisher Combi (Thermo Fisher Scientific, Waltham, MA).
Calcium flux was measured using the Functional Drug Screening System (FDSS) 6000 or 7000 (Hamamatsu Corporation, Tokyo, Japan) as an increase in the fluorescent static ratio. Compounds were applied to cells (20 μL, 2×) using the automated system of the FDSS at 2-4 seconds into the protocol and the data were collected at 1 Hz. At 144 seconds, 10 μL of an EC20 concentration of the muscarinic receptor agonist acetylcholine was added (5×), followed by the addition of 12 μL of an EC80 concentration of acetylcholine at the 230 second time point (5×). Agonist activity was analyzed as a concentration-dependent increase in calcium mobilization upon compound addition. Positive allosteric modulator activity was analyzed as a concentration-dependent increase in the EC20 acetylcholine response. Antagonist activity was analyzed as a concentration-dependent decrease in the EC80 acetylcholine response. Concentration-response curves were generated using a four-parameter logistical equation in XLFit curve fitting software (IDBS, Bridgewater, NJ) for Excel (Microsoft, Redmond, WA) or Prism (GraphPad Software, Inc., San Diego, CA).
Compounds were synthesized as described above. Activity (EC50 and Emax) was determined in the mAChR M4 cell-based functional assay as described above and the data are shown in Tables 2-4. The compound number corresponds to the compound numbers used in Table 1.

How did the Emax at 30 µM turn out when `Cc1c(N2CCc3ncc(Nc4c(F)cccc4C#N)cc3C2)nn2cnnc2c1C` [Compound 46, 2-[[6-(7,8-dimethyl-[1,2,4]triazolo[4,3-b]pyridazin-6-yl)-7,8-dihydro-5H-1,6-naphthyridin-3-yl]amino]-3-fluoro-benzonitrile] was run?
The Emax at 30 µM was 64%.

And the EC50?
The EC50 was 611 nM.

What does the source list for `Cc1c(N2CCc3ncc(Nc4c(F)cccc4F)cc3C2)nn2cnnc2c1C` [Compound 47, N-(2,6-difluorophenyl)-6-(7,8-dimethyl-[1,2,4]triazolo[4,3-b]pyridazin-6-yl)-7,8-dihydro-5H-1,6-naphthyridin-3-amine]?
Emax at 30 µM: 80%; EC50: 92.1 nM

Which results are given for `Cc1ccc(Nc2cnc3c(c2)CN(c2nn4cnnc4c(C)c2C)CC3)c(F)c1` [Compound 48, 6-(7,8-dimethyl-[1,2,4]triazolo[4,3-b]pyridazin-6-yl)-N-(2-fluoro-4-methyl-phenyl)-7,8-dihydro-5H-1,6-naphthyridin-3-amine]?
Emax at 30 µM: 80%; EC50: 147 nM

With `Cc1c(N2CCc3ncc(Nc4cccc(F)c4F)cc3C2)nn2cnnc2c1C` [Compound 49, N-(2,3-difluorophenyl)-6-(7,8-dimethyl-[1,2,4]triazolo[4,3-b]pyridazin-6-yl)-7,8-dihydro-5H-1,6-naphthyridin-3-amine] as the compound, how does the Emax at 30 µM read?
Its Emax at 30 µM is 82%.

And the EC50?
The EC50 was 82.4 nM.

For `Cc1c(N2CCc3ncc(Nc4ccccc4Cl)cc3C2)nn2cnnc2c1C` [Compound 50, N-(2-chlorophenyl)-6-(7,8-dimethyl-[1,2,4]triazolo[4,3-b]pyridazin-6-yl)-7,8-dihydro-5H-1,6-naphthyridin-3-amine], which Emax at 30 µM is on record?
The Emax at 30 µM was 85%.

And the EC50?
The EC50 was 211 nM.

What does the source list for `Cc1c(N2CCc3ncc(Nc4ccccc4N(C)C)cc3C2)nn2cnnc2c1C` [Compound 51, N1-[6-(7,8-dimethyl-[1,2,4]triazolo[4,3-b]pyridazin-6-yl)-7,8-dihydro-5H-1,6-naphthyridin-3-yl]-N2,N2-dimethyl-benzene-1,2-diamine]?
Emax at 30 µM: 67%; EC50: 402 nM

What does the source list for `Cc1c(N2CCc3ncc(Nc4ccccc4C#N)cc3C2)nn2cnnc2c1C` [Compound 52, 2-[[6-(7,8-dimethyl-[1,2,4]triazolo[4,3-b]pyridazin-6-yl)-7,8-dihydro-5H-1,6-naphthyridin-3-yl]amino]benzonitrile]?
Emax at 30 µM: 76%; EC50: 381 nM

For `Cc1ccccc1Nc1cnc2c(c1)CN(c1nn3cnnc3c(C)c1C)CC2` [Compound 53, 6-(7,8-dimethyl-[1,2,4]triazolo[4,3-b]pyridazin-6-yl)-N-(o-tolyl)-7,8-dihydro-5H-1,6-naphthyridin-3-amine], which Emax at 30 µM is on record?
The Emax at 30 µM was 91%.

And the EC50?
The EC50 was 86.1 nM.

With `COc1ccccc1Nc1cnc2c(c1)CN(c1nn3cnnc3c(C)c1C)CC2` [Compound 54, 6-(7,8-dimethyl-[1,2,4]triazolo[4,3-b]pyridazin-6-yl)-N-(2-methoxyphenyl)-7,8-dihydro-5H-1,6-naphthyridin-3-amine] as the compound, how does the Emax at 30 µM read?
The Emax at 30 µM was 90%.

And the EC50?
Its EC50 is 152 nM.

Which results are given for `CSc1ccccc1Nc1cnc2c(c1)CN(c1nn3cnnc3c(C)c1C)CC2` [Compound 55, 6-(7,8-dimethyl-[1,2,4]triazolo[4,3-b]pyridazin-6-yl)-N-(2-methylsulfanylphenyl)-7,8-dihydro-5H-1,6-naphthyridin-3-amine]?
Emax at 30 µM: 85%; EC50: 241 nM

With `Cc1c(N2CCc3ncc(C(=O)N4CCCC4)cc3C2)nn2cnnc2c1C` [Compound 56, [6-(7,8-dimethyl-[1,2,4]triazolo[4,3-b]pyridazin-6-yl)-7,8-dihydro-5H-1,6-naphthyridin-3-yl]-pyrrolidin-1-yl-methanone] as the compound, how does the Emax at 30 µM read?
The Emax at 30 µM was 91%.

How did the Emax at 30 µM turn out when `Cc1c(N2CCc3ncc(C(=O)NC4CC4)cc3C2)nn2cnnc2c1C` [Compound 57, N-cyclopropyl-6-(7,8-dimethyl-[1,2,4]triazolo[4,3-b]pyridazin-6-yl)-7,8-dihydro-5H-1,6-naphthyridine-3-carboxamide] was run?
The Emax at 30 µM was 60%.

What about the EC50 of the same compound?
Its EC50 is 7750 nM.

With `Cc1c(N2CCc3ncc(C(=O)N4CCOCC4)cc3C2)nn2cnnc2c1C` [Compound 58, [6-(7,8-dimethyl-[1,2,4]triazolo[4,3-b]pyridazin-6-yl)-7,8-dihydro-5H-1,6-naphthyridin-3-yl]-morpholino-methanone] as the compound, how does the Emax at 30 µM read?
The Emax at 30 µM was 51%.

For `Cc1c(N2CCc3ncc(C(=O)Nc4ccccc4F)cc3C2)nn2cnnc2c1C` [Compound 59, 6-(7,8-dimethyl-[1,2,4]triazolo[4,3-b]pyridazin-6-yl)-N-(2-fluorophenyl)-7,8-dihydro-5H-1,6-naphthyridine-3-carboxamide], which Emax at 30 µM is on record?
Its Emax at 30 µM is 89%.

And the EC50?
Its EC50 is 695 nM.

With `Cc1ncc(-c2cnc3c(c2)CN(c2nn4cnnc4c(C)c2C)CC3)s1` [Compound 60, 5-[6-(7,8-dimethyl-[1,2,4]triazolo[4,3-b]pyridazin-6-yl)-7,8-dihydro-5H-1,6-naphthyridin-3-yl]-2-methyl-thiazole] as the compound, how does the Emax at 30 µM read?
The Emax at 30 µM was 82%.

And the EC50?
Its EC50 is 180 nM.

How did the Emax at 30 µM turn out when `Cc1nc(C)c(-c2cnc3c(c2)CN(c2nn4cnnc4c(C)c2C)CC3)s1` [Compound 61, 5-[6-(7,8-dimethyl-[1,2,4]triazolo[4,3-b]pyridazin-6-yl)-7,8-dihydro-5H-1,6-naphthyridin-3-yl]-2,4-dimethyl-thiazole] was run?
The Emax at 30 µM was 89%.

And the EC50?
Its EC50 is 171 nM.

Which Emax at 30 µM does the source give for `Cc1c(N2CCc3ncc(C(C)(C)O)cc3C2)nn2cnnc2c1C` [Compound 62, 2-[6-(7,8-Dimethyl-[1,2,4]triazolo[4,3-b]pyridazin-6-yl)-7,8-dihydro-5H-1,6-naphthyridin-3-yl]propan-2-ol] here?
Its Emax at 30 µM is 108%.

And the EC50?
The EC50 was 92.9 nM.

What does the source list for `Cc1c(N2CCc3ncc(-c4cnn(Cc5ccccc5)c4)cc3C2)nn2cnnc2c1C` [Compound 63, 3-(1-benzylpyrazol-4-yl)-6-(7,8-dimethyl-[1,2,4]triazolo[4,3-b]pyridazin-6-yl)-7,8-dihydro-5H-1,6-naphthyridine]?
Emax at 30 µM: 94%; EC50: 262 nM

How did the Emax at 30 µM turn out when `Cc1c(N2CCc3ncc(Nc4c(F)cccc4Cl)cc3C2)nn2cnnc2c1C` [Compound 64, N-(2-chloro-6-fluoro-phenyl)-6-(7,8-dimethyl-[1,2,4]triazolo[4,3-b]pyridazin-6-yl)-7,8-dihydro-5H-1,6-naphthyridin-3-amine] was run?
The Emax at 30 µM was 96%.

What about the EC50 of the same compound?
Its EC50 is 788 nM.

What does the source list for `COc1cccc(Nc2cnc3c(c2)CN(c2nn4cnnc4c(C)c2C)CC3)c1F` [Compound 65, 6-(7,8-dimethyl-[1,2,4]triazolo[4,3-b]pyridazin-6-yl)-N-(2-fluoro-3-methoxy-phenyl)-7,8-dihydro-5H-1,6-naphthyridin-3-amine]?
Emax at 30 µM: 104%; EC50: 188 nM

`Cc1c(N2CCc3ncc(Nc4cccc(C(F)(F)F)c4F)cc3C2)nn2cnnc2c1C` [Compound 66, 6-(7,8-dimethyl-[1,2,4]triazolo[4,3-b]pyridazin-6-yl)-N-[2-fluoro-3-(trifluoromethyl)phenyl]-7,8-dihydro-5H-1,6-naphthyridin-3-amine] was tested. Which Emax at 30 µM did it give?
Its Emax at 30 µM is 95%.

And the EC50?
Its EC50 is 882 nM.

What does the source list for `Cc1c(N2CCc3ncc(Nc4cccc(Cl)c4F)cc3C2)nn2cnnc2c1C` [Compound 67, N-(3-chloro-2-fluoro-phenyl)-6-(7,8-dimethyl-[1,2,4]triazolo[4,3-b]pyridazin-6-yl)-7,8-dihydro-5H-1,6-naphthyridin-3-amine]?
Emax at 30 µM: 86%; EC50: 219 nM
